In the test the test system is collapsing trachea. As to the kind of experiment: Treatment of collapsing trachea in dogs (case reports). The class given is in vivo, dog. The note with it: Pomeranian. Here is the method:
Upon presentation, the patient had severe dyspnea and coughing.
Oxycodone sustained release was prescribed, 10 mg twice daily. […] When appetite returned (along with resumed coughing) the patient's dosage was adjusted to 2.5 mg twice daily (cutting the 10 mg tablets in quarters). […] On two occasions when the beginning of a cough was observed, a single additional 2.5 mg tablet was administered, followed by return to the original twice-daily dosing regimen.
The treatment described in Example 1 has been successfully repeated in two additional dogs diagnosed as having collapsing trachea.

SMILES strings stand for the structures.

For `O=C(O)C(O)C(O)C(=O)O.Oc1ccc2c(c1)[C@@]13CCCC[C@@]1(O)[C@@H](C2)N(CC1CCC1)CC3` [Torbutrol, butorphenol], for the setting “history before presentation”, the “cough (prior treatment, history)” value is “had been controlling the cough”; the “exercise tolerance and panting (prior treatment, history)” value was “highly intolerant to exercise (to the point of having to be carried) and continuously panting”. Besides, the “response at presentation (refractory stage)” value (severe intrathoracic collapsing trachea at presentation) is given as “stopped responding”.

(Values after US20170087149A9, “TREATMENT FOR […]” (priority 2013, published 2017).)
